PubChem BioAssay (NCI)
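Results reflect a 48-hour exposure of cells in 96-well plates to compound at five concentrations. The concentration for 50% growth inhibition is given as GI50. TGI denotes the concentration required for complete inhibition of growth.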

Experiments:
Experiment in all cases: NCI anticancer screen, dose series, 48 h
SK-OV-3 ovarian = tested on: SK-OV-3 ovarian
CAKI-1 renal = tested on: CAKI-1 renal
UO-31 renal = tested on: UO-31 renal
ACHN renal = tested on: ACHN renal
MCF7 breast = tested on: MCF7 breast
SF-295 CNS = tested on: SF-295 CNS
M14 melanoma = tested on: M14 melanoma
HOP-92 NSCLC = tested on: HOP-92 NSCLC

## COc1cc(OCc2cccc(-c3ccccc3)c2C)cc(OC)c1CN1CCCCC1C(=O)NCCOCCOCCN (stereo unspecified)
SK-OV-3 ovarian
  GI50: 10.7 µM
  TGI: 24 µM
CAKI-1 renal
  GI50: 1.94 µM
  TGI: 5.96 µM
UO-31 renal
  GI50: 10.6 µM
  TGI: 22.9 µM
ACHN renal
  GI50: 3.43 µM
  TGI: 13 µM
MCF7 breast
  GI50: 1.92 µM
  TGI: 3.92 µM
SF-295 CNS
  GI50: 2.03 µM
  TGI: 4.23 µM
M14 melanoma
  GI50: 1.84 µM
  TGI: 3.57 µM
HOP-92 NSCLC
  GI50: 1.57 µM
  TGI: 5.45 µM

## COc1cc([C@@H]2c3cc4c(cc3[C@H](OC(C)=O)[C@H]3COC(=O)[C@@H]23)OCO4)cc(OC)c1OC
SK-OV-3 ovarian
  GI50: 0.334 µM
  TGI: > 100 µM
CAKI-1 renal
  GI50: 0.537 µM
  TGI: > 100 µM
UO-31 renal
  GI50: 0.493 µM
  TGI: > 100 µM
ACHN renal
  GI50: 0.766 µM
  TGI: > 100 µM
MCF7 breast
  GI50: 0.334 µM
  TGI: > 100 µM
SF-295 CNS
  GI50: 0.296 µM
  TGI: > 100 µM
M14 melanoma
  GI50: 0.242 µM
  TGI: 5.3 µM
HOP-92 NSCLC
  GI50: 2.55 µM
  TGI: > 100 µM

## O=C1c2cccnc2-c2nc(-c3cccnc3)cc3c2c1nc1ccccc13
SK-OV-3 ovarian
  GI50: 15.3 µM
  TGI: 29.8 µM
CAKI-1 renal
  GI50: 6.96 µM
  TGI: 22.8 µM
UO-31 renal
  GI50: 15.2 µM
  TGI: 37.3 µM
ACHN renal
  GI50: 1.55 µM
  TGI: 2.88 µM
MCF7 breast
  GI50: 1.64 µM
  TGI: 3.32 µM
SF-295 CNS
  GI50: 1.92 µM
  TGI: 3.71 µM
M14 melanoma
  GI50: 1.93 µM
  TGI: 3.51 µM
HOP-92 NSCLC
  GI50: 6.44 µM
  TGI: 80.6 µM

## CCn1cc(/C=C2\Oc3cc(OCC#N)ccc3C2=O)c2cc(OC)ccc21
SK-OV-3 ovarian
  GI50: 1.7 µM
  TGI: > 78.5 µM
CAKI-1 renal
  GI50: 0.0663 µM
  TGI: 28.9 µM
UO-31 renal
  GI50: 0.669 µM
  TGI: > 100 µM
ACHN renal
  GI50: 0.847 µM
  TGI: > 100 µM
MCF7 breast
  GI50: 0.209 µM
  TGI: > 100 µM
SF-295 CNS
  GI50: 0.221 µM
  TGI: 20.7 µM
M14 melanoma
  GI50: 0.119 µM
  TGI: > 100 µM
HOP-92 NSCLC
  GI50: 11.2 µM
  TGI: 68.6 µM

## CCOC(=O)c1ccc(NC(=O)NC2=NCCS2)cc1
SK-OV-3 ovarian
  GI50: 1.03 µM
  TGI: 7.76 µM
CAKI-1 renal
  GI50: 1.39 µM
  TGI: > 100 µM
UO-31 renal
  GI50: 5.13 µM
  TGI: > 100 µM
ACHN renal
  GI50: 45.9 µM
  TGI: > 100 µM
MCF7 breast
  GI50: 0.517 µM
  TGI: > 100 µM
SF-295 CNS
  GI50: 0.619 µM
  TGI: 6.13 µM
M14 melanoma
  GI50: 2.66 µM
  TGI: > 100 µM
HOP-92 NSCLC
  GI50: 0.418 µM
  TGI: > 100 µM

## Clc1ccc(/C=C/c2ccc3ccccc3n2)cc1
SK-OV-3 ovarian
  GI50: 0.519 µM
  TGI: > 21 µM
CAKI-1 renal
  GI50: 2.29 µM
  TGI: > 57.9 µM
UO-31 renal
  GI50: 4.68 µM
  TGI: > 100 µM
ACHN renal
  GI50: 4.82 µM
  TGI: > 100 µM
MCF7 breast
  GI50: 0.467 µM
  TGI: > 100 µM
SF-295 CNS
  GI50: 1.2 µM
  TGI: 6.8 µM
M14 melanoma
  GI50: 0.298 µM
  TGI: 1.01 µM
HOP-92 NSCLC
  GI50: 2.82 µM
  TGI: > 29.9 µM

## C=C(CN1CCc2c([nH]c3ccccc23)C1)c1ccc(C(=O)Nc2ccccc2N)cc1
SK-OV-3 ovarian
  GI50: 3.14 µM
  TGI: 11.6 µM
CAKI-1 renal
  GI50: 1.67 µM
  TGI: 8.25 µM
UO-31 renal
  GI50: 3.53 µM
  TGI: 9.89 µM
ACHN renal
  GI50: 1.74 µM
  TGI: 10.4 µM
MCF7 breast
  GI50: 3.98 µM
  TGI: 22.9 µM
SF-295 CNS
  GI50: 16.6 µM
  TGI: 27.8 µM
M14 melanoma
  GI50: 4.13 µM
  TGI: 14.7 µM
HOP-92 NSCLC
  GI50: 1.66 µM
  TGI: 11.4 µM

## C=C1C(=O)O[C@H]2[C@H]1CC/C(COC(=O)N[C@H]1C[C@H](O[C@H]3C[C@](O)(C(=O)CO)Cc4c(O)c5c(c(O)c43)C(=O)c3c(OC)cccc3C5=O)O[C@@H](C)[C@H]1O)=C\CC[C@@]1(C)O[C@@H]21
SK-OV-3 ovarian
  GI50: > 50 µM
  TGI: > 50 µM
CAKI-1 renal
  GI50: 7.76 µM
  TGI: > 50 µM
UO-31 renal
  GI50: > 50 µM
  TGI: > 50 µM
ACHN renal
  GI50: 41.3 µM
  TGI: > 50 µM
MCF7 breast
  GI50: 1.86 µM
  TGI: 9.86 µM
SF-295 CNS
  GI50: 45.3 µM
  TGI: > 50 µM
M14 melanoma
  GI50: 8.36 µM
  TGI: 22.5 µM
HOP-92 NSCLC
  GI50: 0.838 µM
  TGI: 2.28 µM

## Cc1cc(CCl)c(C)cc1CCl
SK-OV-3 ovarian
  GI50: 4.92 µM
  TGI: 23 µM
CAKI-1 renal
  GI50: 0.358 µM
  TGI: 1.59 µM
UO-31 renal
  GI50: 1.53 µM
  TGI: 3.71 µM
ACHN renal
  GI50: 0.695 µM
  TGI: 3.08 µM
MCF7 breast
  GI50: 0.281 µM
  TGI: 2.32 µM
SF-295 CNS
  GI50: 0.84 µM
  TGI: 4.61 µM
M14 melanoma
  GI50: 3.54 µM
  TGI: 30.5 µM
HOP-92 NSCLC
  GI50: 2.52 µM
  TGI: 9.55 µM

## COc1ccc2c(c1)CN([C@@H](C)[C@H]1CC[C@H]3[C@@H]4CC[C@H]5C[C@@H](O)CC[C@]5(C)[C@H]4CC[C@]13C)CO2
SK-OV-3 ovarian
  TGI: 3.56 µM
CAKI-1 renal
  TGI: 13.8 µM
UO-31 renal
  TGI: 3.39 µM
ACHN renal
  TGI: 11.2 µM
MCF7 breast
  TGI: 11.8 µM
SF-295 CNS
  TGI: 2.98 µM
M14 melanoma
  TGI: 3.54 µM
HOP-92 NSCLC
  TGI: 3.71 µM

## CN(C)N1C(=O)SCC(c2ccccc2)(c2ccccc2)C1=O
SK-OV-3 ovarian
  TGI: > 100 µM
CAKI-1 renal
  TGI: > 100 µM
UO-31 renal
  TGI: > 100 µM
ACHN renal
  TGI: > 100 µM
MCF7 breast
  TGI: > 100 µM
SF-295 CNS
  TGI: > 100 µM
M14 melanoma
  TGI: > 100 µM
HOP-92 NSCLC
  TGI: > 100 µM

## Cn1cc(-c2cc(-c3cn(C)c4ccc(Cl)cc34)[nH]n2)c2cc(Cl)ccc21
SK-OV-3 ovarian
  GI50: 5.81 µM
  TGI: > 100 µM
CAKI-1 renal
  GI50: 1.7 µM
  TGI: 6.05 µM
UO-31 renal
  GI50: 3.01 µM
  TGI: 14.8 µM
ACHN renal
  GI50: 3.23 µM
  TGI: 12.8 µM
MCF7 breast
  GI50: 2.64 µM
  TGI: 6.89 µM
SF-295 CNS
  GI50: 2.52 µM
  TGI: 8.65 µM
M14 melanoma
  GI50: 2.15 µM
  TGI: 5.3 µM
HOP-92 NSCLC
  GI50: 1.86 µM
  TGI: 4.74 µM
